Experimental data taken from patent US6486162B2, “2-{3-[4-(2-t-butyl-6-trifluoromethyl-4-pyrimidinyl)-1- piperazinyl] propylthio}-4-pyrimidinol fumarate” (Abbott Laboratories, priority 1997, dated 2002).

What was measured:
Assay type in all cases: physicochemical
[1] = evaluation of various acid addition salts
Source text: Evaluation of various acid addition salts of 2-{3-[4-(2-t-butyl-6-trifluoromethyl-4-pyrimidyl)-1-piperazinyl)propylthio}-4-5 pyrimidinol

[2] = solubility tests of the substances
Source text: It has a selectivity, Ki D2/Ki D3of 120 (cf. WO 96/02519). The compound is therefore useful for treating disorders which respond to dopamine D3ligands, eg. for treating disorders of the central nervous system, in particular schizophrenia, depressions, neuroses and psychoses. It is additionally useful for treating sleep disturbances and nausea and as antihistamine.
(§1) Furthermore, the fumarate is more soluble in polar solvents such as C1-C6-alkanols than the free base. Because of the altered solubility characteristics, it can also be purified more simply while avoiding physiologically unacceptable solvents.

[3] = stability against oxidative processes; conditions: compared to the free base
Source text: as §1

## CC(C)(C)c1nc(N2CCN(CCCSc3nccc(O)n3)CC2)cc(C(F)(F)F)n1.O=C(O)/C=C/C(=O)O [Fumarate, fumaric acid salt of 2-{3-[4-(2-t-butyl-6-trifluoromethyl-4-pyrimidinyl)-1-piperazinyl]propylthio}-4-pyrimidinol]
[1]
  Observation: hygroscopicity: non-hygroscopic salt with definite
[2]; compared to that of the free base
  solubility in water: substantially higher solubility
[2]; compared to the free base
  solubility in polar solvents such as C1-C6-alkanols: more soluble
[3]
  stability against oxidative processes: higher stability

## Methane sulfonate
[1]
  Observation: crystals are deliquescent and dissolve within: deliquescent and dissolve within 3 h

## Hydrochloride
[1]; aqueous solution of the salt is highly acidic
  Observation: stability of the compound in the acidic medium: acidic; the compound is instable in
